Assay results: the supplement of paper PMC10307832

Experiments:
Experiment in all cases: relative viability (nuclei count vs DMSO), 5 days (fraction); higher = more cells survive
BEN = tested on: BEN
How it was run: (§1)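 Medians of duplicate plates are given as relative viability. That measure is the nuclei count in treated wells divided by the count in vehicle wells. Counts were taken on 4× images of lung cancer cell lines in 1536-well plates, 5 days after pin-tool dosing the day after seeding with one drug alone or a fixed anchor-drug dose plus five library-drug doses (not always all listed) in √10 steps.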

CAL-12T = tested on: CAL-12T
How it was run: as §1

EKVX = tested on: EKVX
How it was run: as §1

HCC-15 = tested on: HCC-15
How it was run: as §1

HCC-366 = tested on: HCC-366
How it was run: as §1

LCLC-103H = tested on: LCLC-103H
How it was run: as §1

LOU-NH91 = tested on: LOU-NH91
How it was run: as §1

NCI-H1355 = tested on: NCI-H1355
How it was run: as §1

NCI-H1395 = tested on: NCI-H1395
How it was run: as §1

NCI-H1437 = tested on: NCI-H1437
How it was run: as §1

NCI-H1563 = tested on: NCI-H1563
How it was run: as §1

NCI-H1650 = tested on: NCI-H1650
How it was run: as §1

NCI-H1651 = tested on: NCI-H1651
How it was run: as §1

NCI-H1734 = tested on: NCI-H1734
How it was run: as §1

NCI-H1755 = tested on: NCI-H1755
How it was run: as §1

NCI-H1975 = tested on: NCI-H1975
How it was run: as §1

NCI-H2023 = tested on: NCI-H2023
How it was run: as §1

NCI-H2085 = tested on: NCI-H2085
How it was run: as §1

NCI-H2342 = tested on: NCI-H2342
How it was run: as §1

NCI-H358 = tested on: NCI-H358
How it was run: as §1

NCI-H441 = tested on: NCI-H441
How it was run: as §1

NCI-H460 = tested on: NCI-H460
How it was run: as §1

NCI-H838 = tested on: NCI-H838
How it was run: as §1

Clc1ccc(Nc2nnc(Cc3ccncc3)c3ccccc23)cc1 [Vatalanib] + COc1cc2c(Oc3ccc(NC(=O)C4(C(=O)Nc5ccc(F)cc5)CC4)cc3F)ccnc2cc1OCCCN1CCOCC1 [Foretinib] (partner 0.25 µM)
relative viability (BEN; first compound 0.04 µM): 0.705
relative viability (BEN; first compound 0.1265 µM): 0.526
relative viability (BEN; first compound 0.4 µM): 0.845
relative viability (BEN; first compound 1.265 µM): 0.511
relative viability (BEN; first compound 4 µM): 0.696
relative viability (CAL-12T; first compound 0.04 µM): 1.07
relative viability (CAL-12T; first compound 0.1265 µM): 1.16
relative viability (CAL-12T; first compound 0.4 µM): 1.05
relative viability (CAL-12T; first compound 1.265 µM): 1.04
relative viability (CAL-12T; first compound 4 µM): 1.05
relative viability (EKVX; first compound 0.04 µM): 0.836
relative viability (EKVX; first compound 0.1265 µM): 0.838
relative viability (EKVX; first compound 0.4 µM): 0.551
relative viability (EKVX; first compound 4 µM): 0.727
relative viability (HCC-15; first compound 0.04 µM): 1
relative viability (HCC-15; first compound 0.1265 µM): 1.06
relative viability (HCC-15; first compound 0.4 µM): 1.02
relative viability (HCC-15; first compound 1.265 µM): 0.996
relative viability (HCC-15; first compound 4 µM): 1.03
relative viability (HCC-366; first compound 0.04 µM): 0.85
relative viability (HCC-366; first compound 0.1265 µM): 0.8
relative viability (HCC-366; first compound 0.4 µM): 0.895
relative viability (HCC-366; first compound 1.265 µM): 0.885
relative viability (HCC-366; first compound 4 µM): 0.949
relative viability (LCLC-103H; first compound 0.04 µM): 0.829
relative viability (LCLC-103H; first compound 0.1265 µM): 0.705
relative viability (LCLC-103H; first compound 0.4 µM): 0.752
relative viability (LCLC-103H; first compound 1.265 µM): 0.739
relative viability (LCLC-103H; first compound 4 µM): 0.756
relative viability (LOU-NH91; first compound 0.04 µM): 0.887
relative viability (LOU-NH91; first compound 0.1265 µM): 0.956
relative viability (LOU-NH91; first compound 1.265 µM): 0.937
relative viability (LOU-NH91; first compound 4 µM): 0.91
relative viability (NCI-H1355; first compound 0.04 µM): 1.01
relative viability (NCI-H1355; first compound 0.1265 µM): 1.01
relative viability (NCI-H1355; first compound 0.4 µM): 1.02
relative viability (NCI-H1355; first compound 1.265 µM): 0.847
relative viability (NCI-H1355; first compound 4 µM): 0.971
relative viability (NCI-H1395; first compound 0.04 µM): 0.994
relative viability (NCI-H1395; first compound 0.1265 µM): 1.1
relative viability (NCI-H1395; first compound 0.4 µM): 1.08
relative viability (NCI-H1395; first compound 1.265 µM): 0.938
relative viability (NCI-H1395; first compound 4 µM): 1.02
relative viability (NCI-H1437; first compound 0.04 µM): 1.25
relative viability (NCI-H1437; first compound 0.1265 µM): 1.27
relative viability (NCI-H1437; first compound 0.4 µM): 1.4
relative viability (NCI-H1437; first compound 1.265 µM): 1.21
relative viability (NCI-H1437; first compound 4 µM): 1.26
relative viability (NCI-H1563; first compound 0.04 µM): 0.92
relative viability (NCI-H1563; first compound 0.1265 µM): 0.874
relative viability (NCI-H1563; first compound 0.4 µM): 0.995
relative viability (NCI-H1563; first compound 1.265 µM): 0.875
relative viability (NCI-H1563; first compound 4 µM): 0.901
relative viability (NCI-H1650; first compound 0.04 µM): 1.22
relative viability (NCI-H1650; first compound 0.1265 µM): 1.05
relative viability (NCI-H1650; first compound 0.4 µM): 0.89
relative viability (NCI-H1650; first compound 1.265 µM): 1
relative viability (NCI-H1650; first compound 4 µM): 1.27
relative viability (NCI-H1651; first compound 0.04 µM): 0.885
relative viability (NCI-H1651; first compound 0.1265 µM): 0.768
relative viability (NCI-H1651; first compound 0.4 µM): 0.94
relative viability (NCI-H1651; first compound 1.265 µM): 0.803
relative viability (NCI-H1651; first compound 4 µM): 0.817
relative viability (NCI-H1734; first compound 0.04 µM): 0.878
relative viability (NCI-H1734; first compound 0.1265 µM): 0.833
relative viability (NCI-H1734; first compound 0.4 µM): 0.912
relative viability (NCI-H1734; first compound 1.265 µM): 0.736
relative viability (NCI-H1734; first compound 4 µM): 0.782
relative viability (NCI-H1755; first compound 0.04 µM): 0.88
relative viability (NCI-H1755; first compound 0.1265 µM): 0.964
relative viability (NCI-H1755; first compound 0.4 µM): 0.954
relative viability (NCI-H1755; first compound 1.265 µM): 0.905
relative viability (NCI-H1755; first compound 4 µM): 0.846
relative viability (NCI-H1975; first compound 0.04 µM): 0.968
relative viability (NCI-H1975; first compound 0.1265 µM): 0.885
relative viability (NCI-H1975; first compound 0.4 µM): 0.953
relative viability (NCI-H1975; first compound 1.265 µM): 0.866
relative viability (NCI-H1975; first compound 4 µM): 0.832
relative viability (NCI-H2023; first compound 0.04 µM): 0.881
relative viability (NCI-H2023; first compound 0.1265 µM): 0.974
relative viability (NCI-H2023; first compound 0.4 µM): 1.04
relative viability (NCI-H2023; first compound 1.265 µM): 0.753
relative viability (NCI-H2023; first compound 4 µM): 1.04
relative viability (NCI-H2085; first compound 0.04 µM): 1.07
relative viability (NCI-H2085; first compound 0.1265 µM): 0.879
relative viability (NCI-H2085; first compound 0.4 µM): 0.854
relative viability (NCI-H2085; first compound 1.265 µM): 0.996
relative viability (NCI-H2085; first compound 4 µM): 0.818
relative viability (NCI-H2342; first compound 0.04 µM): 1.08
relative viability (NCI-H2342; first compound 0.1265 µM): 1.03
relative viability (NCI-H2342; first compound 0.4 µM): 1.08
relative viability (NCI-H2342; first compound 1.265 µM): 1.16
relative viability (NCI-H2342; first compound 4 µM): 1.05
relative viability (NCI-H358; first compound 0.04 µM): 1.15
relative viability (NCI-H358; first compound 0.1265 µM): 0.568
relative viability (NCI-H358; first compound 0.4 µM): 0.533
relative viability (NCI-H358; first compound 1.265 µM): 0.718
relative viability (NCI-H358; first compound 4 µM): 0.621
relative viability (NCI-H441; first compound 0.04 µM): 0.994
relative viability (NCI-H441; first compound 0.1265 µM): 0.977
relative viability (NCI-H441; first compound 0.4 µM): 1.15
relative viability (NCI-H441; first compound 1.265 µM): 0.881
relative viability (NCI-H441; first compound 4 µM): 0.893
relative viability (NCI-H460; first compound 0.04 µM): 1.11
relative viability (NCI-H460; first compound 0.1265 µM): 0.894
relative viability (NCI-H460; first compound 0.4 µM): 0.93
relative viability (NCI-H460; first compound 1.265 µM): 0.934
relative viability (NCI-H460; first compound 4 µM): 1.06
relative viability (NCI-H838; first compound 0.04 µM): 1.11
relative viability (NCI-H838; first compound 0.1265 µM): 1.03
relative viability (NCI-H838; first compound 0.4 µM): 1.13
relative viability (NCI-H838; first compound 1.265 µM): 1.04
relative viability (NCI-H838; first compound 4 µM): 1.01
